Results: patent US9045507B2, “Coumarin-based amino acids for use in enzyme activity and substrate specificity assays” (UNIVERSITY OF SOUTHERN CALIFORNIA, priority 2005, dated 2015)
Where a SMILES comes first, the peptide text is derived from it. [ ]: non-standard residue; d: D form. pY = N[C@@H](Cc1ccc(OP(=O)(O)O)cc1)C(=O)O

What was measured:
Format in all cases: biochemical
[1] = biological target: T1, Protein tyrosine phosphatase from Yersinia enterocolitica (YOP) (Yersinia enterocolitica, UniProt P15273); test: Enzyme activity assay: PTP-catalyzed hydrolysis of substrates by YOP; settings: pH 7.1, room temperature; for Km: read-out: Km (best fit to the Michaelis-Menten equation)
T1 construct: purchased Calbiochem
T1 sequence (P15273 whole entry): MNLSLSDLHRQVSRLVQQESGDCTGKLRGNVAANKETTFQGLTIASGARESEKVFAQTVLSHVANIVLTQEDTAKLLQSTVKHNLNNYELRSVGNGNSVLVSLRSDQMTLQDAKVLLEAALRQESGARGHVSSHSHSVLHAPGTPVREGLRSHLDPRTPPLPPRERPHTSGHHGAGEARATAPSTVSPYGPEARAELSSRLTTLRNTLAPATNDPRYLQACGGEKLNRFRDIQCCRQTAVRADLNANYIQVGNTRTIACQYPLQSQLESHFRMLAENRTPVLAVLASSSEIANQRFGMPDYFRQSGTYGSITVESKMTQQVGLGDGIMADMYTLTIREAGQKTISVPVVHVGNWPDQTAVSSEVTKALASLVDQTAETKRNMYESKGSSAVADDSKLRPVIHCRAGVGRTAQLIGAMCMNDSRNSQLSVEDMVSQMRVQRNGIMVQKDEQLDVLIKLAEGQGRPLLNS
Excerpt: (§1) Protein tyrosine phosphatase from Yersinia enterocolitica (YOP)^16 and human T-cell PTP (TCPTP)^17 were obtained from Calbiochem in purified form and used as received. Reagents for solid phase peptide synthesis including Fmoc protected amino acids and Rink Amide resin were obtained from Novabiochem and used without further purification. Trichloroethanol (TCE), resorcinol, dicyclohexylcarbodiimide (DCC) and N,N-dimethylaminopyridine (DMAP) were obtained from Lancaster, isopropenyl chloroformate (IPCF) from Acros Organics, trifluoroacetic acid (TFA) from Oakwood Chemicals and methanesulfonic acid, diethyl chlorophosphate and zinc dust were obtained from Aldrich Chemical Company. Dry solvents were obtained from VWR and Aldrich. Fluorinated resorcinols were synthesized according to a literature procedure.^18 All of the chemicals were used as received, except zinc, which was activated prior to use by washing with 20% HCl, followed by water and acetone.
^1H, ^13C, and ^31P NMR spectra were recorded on Bruker AC 250, Bruker AC 360 and Varian 400 MHz instruments. Peptides were purified on a Varian ProStar 210 HPLC system using a preparative-scale C18 reverse-phase column. Mass spectrometric characterization was carried out using an Applied Biosystems Voyager-DE STR MALDI-TOF instrument with α-cyanohydroxycinnamic acid as the matrix. Enzyme assays with fluorogenic substrates were performed on a Molecular Devices Analyst AD multimode plate reader in fluorescence mode with an excitation filter, emission filter and dichroic mirror at 360 nm, 425 nm, and 400 nm, respectively. Enzymatic hydrolysis of the phosphotyrosine-containing peptide DADE-phpsphotyrosine-GPAA (9a) was followed by observing an increase in absorbance at 280 nm using a Varian Cary50 spectrophotometer.
Standard conditions employed to determine the kinetic constants of each substrate with YOP and TCPTP are described below. Substrates were dissolved in DMSO and diluted to the appropriate concentration in DMSO. Aliquots were taken such that each reaction had the same amount of DMSO, which never exceeded 5% of the reaction volume (usually 200 μL). The buffer used for all studies contained 50 mM HEPES, pH 7.1, 100 mM NaCl, 2 mM EDTA, 0.01% Brij 35, 1 mM dithiothreitol (DTT). Prior to each reaction, the enzyme was incubated in buffer with freshly added DTT for 10 min on ice. […] The increase in signal (absorbance or fluorescence) due to substrate hydrolysis was measured every 60 s for 30 min. […] Standard curves were prepared using authentic samples of the appropriate product, relative fluorescence or absorbance units were converted into concentration of product formed, and the resulting data was fit to the Michaelis-Menten equation, providing kinetic parameters for each substrate.

[2] = biological target: protein tyrosine kinase Csk (Homo sapiens, UniProt P41240); test: Kinase assay: MU as substrate for Csk; settings: fluorescence decrease, ATP, pH 6.8
protein tyrosine kinase Csk, sequence (P41240 whole entry): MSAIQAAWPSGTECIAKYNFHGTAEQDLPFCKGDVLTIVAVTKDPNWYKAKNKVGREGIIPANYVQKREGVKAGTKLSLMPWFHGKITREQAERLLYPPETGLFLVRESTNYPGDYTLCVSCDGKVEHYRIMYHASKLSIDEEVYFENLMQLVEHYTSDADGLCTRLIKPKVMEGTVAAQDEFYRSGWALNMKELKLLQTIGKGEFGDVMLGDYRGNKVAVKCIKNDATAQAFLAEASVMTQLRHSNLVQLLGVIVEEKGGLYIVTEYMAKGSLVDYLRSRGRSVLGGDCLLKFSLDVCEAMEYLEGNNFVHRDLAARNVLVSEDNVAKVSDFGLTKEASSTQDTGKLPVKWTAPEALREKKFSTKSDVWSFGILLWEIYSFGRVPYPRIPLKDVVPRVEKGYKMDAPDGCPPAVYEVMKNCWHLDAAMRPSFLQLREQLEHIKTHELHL
Experimental: Currently kinases assays are done using radioactive ATP. We envision that a highly sensitive fluorescence based assay would be more convenient. MU, an analog of CAP, was tested as a substrate for the protein tyrosine kinase Csk, to check the viability of the idea (FIG. 8). […] In addition, the fluorinated derivatives also serve as sensitive fluorescent assays for PTK activity.
Stock solutions of MU were prepared in DMSO to make 1 and 10 mM solutions. For enzymatic assays, various aliquots of each substrate and DMSO (to a total of 5 μL) were placed on a 96 well plate, incubated with 75 μL buffer (30 mM HEPES, 5 mM MgCl2, 0.01% Brij 35, pH 6.8) for 5 mins, treated with 1 μL of 10 mM ATP, followed by 20 μL of 12.8 nM Csk. The decrease in signal (fluorescence) due to substrate phosphorylation was measured every 60 s for 30 min. Each reaction was run in triplicate and the results averaged. Standard curves were prepared using authentic samples of the appropriate substrate, relative fluorescence units were converted into concentration of substrate left unreacted, and the resulting data was fit to the Michaelis-Menten equation, providing kinetic parameters for each substrate.

human T-cell PTP (TCPTP) = biological target: T2, human T-cell PTP (TCPTP) (Homo sapiens, UniProt P17706); test: Enzyme activity assay: PTP-catalyzed hydrolysis of substrates by TCPTP; settings: pH 7.1, 30° C.
T2 construct: purchased Calbiochem
T2 sequence (P17706 1-415): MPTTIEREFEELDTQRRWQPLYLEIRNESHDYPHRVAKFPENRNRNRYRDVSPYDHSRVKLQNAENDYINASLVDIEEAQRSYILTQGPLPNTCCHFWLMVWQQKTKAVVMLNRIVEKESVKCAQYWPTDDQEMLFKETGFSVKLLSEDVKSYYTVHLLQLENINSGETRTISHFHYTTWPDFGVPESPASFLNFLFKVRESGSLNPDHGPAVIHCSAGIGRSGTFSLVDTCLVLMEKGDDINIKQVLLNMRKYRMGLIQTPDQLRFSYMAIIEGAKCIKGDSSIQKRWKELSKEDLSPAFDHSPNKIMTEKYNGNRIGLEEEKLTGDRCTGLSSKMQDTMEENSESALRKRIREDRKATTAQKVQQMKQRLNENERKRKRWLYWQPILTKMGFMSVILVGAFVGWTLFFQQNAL
Excerpt: as §1, with “Fluorinated resorcinols were synthesized according to a literature procedure.^18 All of the chemicals were used as received, except zinc, which was activated prior to use by washing with 20% HCl, followed by water and acetone.” left out
^1H, ^13C, and ^31P NMR spectra were recorded on Bruker AC 250, Bruker AC 360 and Varian 400 MHz instruments. […] Enzyme assays with fluorogenic substrates were performed on a Molecular Devices Analyst AD multimode plate reader in fluorescence mode with an excitation filter, emission filter and dichroic mirror at 360 nm, 425 nm, and 400 nm, respectively. Enzymatic hydrolysis of the phosphotyrosine-containing peptide DADE-phpsphotyrosine-GPAA (9a) was followed by observing an increase in absorbance at 280 nm using a Varian Cary50 spectrophotometer. […]

| Molecule | kcat (best fit to the Michaelis-Menten equation) [1] [s⁻¹] | Km [1] [µM] | phosphorylation of substrate by Csk [2] | kcat (best fit to the Michaelis-Menten equation) (human T-cell PTP (TCPTP)) [s⁻¹] | Km (human T-cell PTP (TCPTP); read-out: Km (best fit to the Michaelis-Menten equation)) [µM] |
| --- | --- | --- | --- | --- | --- |
| Cc1cc(=O)oc2cc(OP(=O)(O)O)ccc12 [MUP] | 5.7 ± 0.5 | 800 ± 200 |  |  |  |
| C[C@H](NC(=O)[C@H](C)NC(=O)[C@@H]1CCCN1C(=O)CNC(=O)[C@H](Cc1ccc(OP(=O)(O)O)cc1)NC(=O)[C@H](CCC(=O)O)NC(=O)[C@H](CC(=O)O)NC(=O)[C@H](C)NC(=O)[C@@H](N)CC(=O)O)C(N)=O [9a, DADE-pY-GPAA-NH2] (H-DADE[pY]GPAA-NH2) | 100 ± 20 | 2700 ± 800 |  |  |  |
| Cc1cc(=O)oc2cc(O)ccc12 [MU, 4-methylumbelliferone] |  |  | Csk indeed phosphorylated MU to MUP |  |  |
| DADE-pCAP-GPAA-NH2 [10a] |  |  |  | 35 ± 10 | 800 ± 300 |
